Measured values as given in PMC8279414, “Discovery and Synthesis of a Pyrimidine-Based Aurora Kinase Inhibitor to Reduce Levels of MYC Oncoproteins” (Journal of Medicinal Chemistry, 2021).
Where two headings read alike, the source gives them in different places.

Columns and labels:
[1] = system: NCI-H446 xenograft tumors; test: In vivo xenograft tumor growth inhibition; design: species or system mice; settings: for anticancer activity in NCI-H446 xenograft tumor model: oral administration, 5-on-2-off regimen
Procedure: (§1) Male athymic nu/nu nude mice (BioLASCO, Taiwan) 6 weeks old were housed in sterile cages maintained under 12 h light/dark cycles with controlled temperature and humidity. Mice were inoculated subcutaneously with 1 × 10^6 NCI–H446 cells (ATCC@ HTB-171) resuspended in saline mixed with 50% Matrigel matrix (Corning, USA). The sizes of the xenografted tumors were measured by a digital caliper (GMC-190; Goldsun Electronics Co.) and calculated using the formula: tumor volume (mm^3) = length × (width)2/2. Body weight and tumor size were measured at least twice a week. When the xenograft tumor reached ≥200 mm^3 in size, mice were intravenous or orally administered with the vehicle (5% dimethylacetamide/95% PEG400) or the compounds on a 5-on-2-off dosing regimen for 2–4 weeks. Tumor growth was analyzed for a statistically significant difference using ANOVA, followed by the Student–Newman–Keuls test. P < 0.05 was considered a significant difference between groups.

NCI-H82 = test: Cell proliferation inhibition assay (PrestoBlue); assay type: cell-based; settings: Homo sapiens, NCI-H82, 72 h; read-out: Compound 13 IC50 (half-proliferation inhibition concentration)
From the text: (§2) SCLC is an aggressive malignancy that accounts for around 10–15% of all lung cancers, for which no targeted therapy is currently available.[29],[30] SCLC cells are characterized by rapid proliferation, universal RB1 and TP53 inactivation, and high rates of MYC-family amplification.[31] A recent study of MYC amplification in 77 formalin-fixed paraffin-embedded SCLC tumor samples using chromogenic in situ hybridization identified amplification of the MYC-family oncogenes in 20% of the tumors.[32],[33] Thus, we evaluated the growth-inhibitory effects of 13 on nine different SCLC cell lines: five with cMYC amplification, one with MYCN amplification, one with MYCL amplification, and two with no MYC-family amplification.
(§3) The efficacy of the compounds as inhibitors of cancer cell proliferation was assessed using PrestoBlue Cell Viability Reagent (ThermoFisher Scientific, USA). Cells were seeded at a density of 5000–10,000 cells per well in 96-well plates. After 24 h, cells were treated with each compound at various concentrations (0–10 μM). IC50 values were computed based on a triplicate, eight-point titration. After 72 h of drug treatment, 10 μL of PrestoBlue Cell Viability Reagent was added to each well, and fluorescence signals were collected using a Wallac Vector 1420 multilabel counter (PerkinElmer, USA).

NCI-H446 = test: Cell proliferation inhibition assay (PrestoBlue); assay type: cell-based; settings: Homo sapiens, NCI-H446, 72 h; read-out: Compound 13 IC50 (half-proliferation inhibition concentration)
From the text: as §2, §3

NCI-H2171 = test: Cell proliferation inhibition assay (PrestoBlue); assay type: cell-based; settings: Homo sapiens, NCI-H2171, 72 h; read-out: Compound 13 IC50 (half-proliferation inhibition concentration)
From the text: as §2, §3

NCI-H211 = test: Cell proliferation inhibition assay (PrestoBlue); assay type: cell-based; settings: Homo sapiens, NCI-H211, 72 h; read-out: Compound 13 IC50 (half-proliferation inhibition concentration)
From the text: as §2, §3

NCI-H524 = test: Cell proliferation inhibition assay (PrestoBlue); assay type: cell-based; settings: Homo sapiens, NCI-H524, 72 h; read-out: Compound 13 IC50 (half-proliferation inhibition concentration)
From the text: as §2, §3

NCI-H146 = test: Cell proliferation inhibition assay (PrestoBlue); assay type: cell-based; settings: NCI-H146 (MYC-unamplified), read-out: Compound 13 IC50 (half-proliferation inhibition concentration)
From the text: as §2, §3

[2] = Body weight of xenograft mice during treatment; assay type: in vivo
Procedure: as §1

cMYC in NCI-H82 = test: Western blot analysis of cMYC protein level in NCI-H82 cells; assay type: cell-based; settings: for NCI-H82 cMYC, relative protein level: 1.0 μM of compound, mean ± SD, triplicate
Procedure: (§4) Cancer cells were treated with each of the compounds at different compound concentrations. […] Each lysate was separated by sodium dodecyl sulfate polyacrylamide gel electrophoresis (SDS-PAGE), transferred to polyvinylidene fluoride (PVDF, Millipore, USA) membrane, and blotted with antibodies. […] After the blotting (0.2% casein, 1% BSA, or 5% nonfat milk), membranes were washed with blotting buffer (0.2% casein in 1× PBS or 1× TBST), and corresponding alkaline phosphatase (AP)- or horseradish peroxidase (HRP)-conjugated secondary antibodies (Sigma-Aldrich) were added. The blots were developed by chemiluminescence (PerkinElmer, USA).

MYCN in SK-N-BE(2) = test: Western blot analysis of MYCN protein level in SK-N-BE(2) cells; assay type: cell-based; settings: for SK-N-BE(2) MYCN, relative protein level: 1.0 μM of compound, mean ± SD, triplicate
Procedure: as §4

[3] = target: T1, human Aurora A (amino acids 123–401) (Homo sapiens, UniProt O14965); test: In vitro inhibition of Aurora A kinase activity (Kinase-Glo Plus Luminescent Kinase assay, ATP consumption); assay type: biochemical; settings: mean of 2–3 independent determinations ± SD; >100 = inhibition < 50% at 100 nM
T1 construct: N-terminal truncated human Aurora A (amino acids 123–401); GST; made in house; host or cells: Sf9 insect cells
T1 sequence (O14965 123-401): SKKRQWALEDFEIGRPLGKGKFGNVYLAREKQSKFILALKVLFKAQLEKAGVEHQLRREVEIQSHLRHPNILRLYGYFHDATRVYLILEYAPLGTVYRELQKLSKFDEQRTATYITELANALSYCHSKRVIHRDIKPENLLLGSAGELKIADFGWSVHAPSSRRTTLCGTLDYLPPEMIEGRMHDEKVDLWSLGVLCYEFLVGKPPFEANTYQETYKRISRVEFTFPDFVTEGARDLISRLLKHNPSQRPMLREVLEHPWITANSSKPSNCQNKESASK
Procedure: The inhibitory potency of the newly synthesized small molecules against Aurora A was first measured in ATP consumption assays using purified Aurora A protein.
The efficacy of the compounds as inhibitors of Aurora A kinase was assessed in vitro using the Kinase-Glo Plus Luminescent Kinase assay (Promega, USA), as described previously.[45] […] The resulting mixture was incubated at 25 °C for 20 min. A 70 μL aliquot of the mixture was transferred to a black microtiter plate.

[4] = system: high-MYC expressing small-cell lung cancer (SCLC) cell lines; test: Cell proliferation inhibition assay, cell lines not named singly; assay type: cell-based; settings: high-MYC expressing / cMYC-amplified SCLC cell lines, 72 h
From the text: as §2, §3

[5] = system: cleaved PARP-1 (cPARP-1) in NCI-H446 xenograft tumors; test: In vivo target validation: cleaved PARP-1 in tumors (western blot); design: species or system mice; settings: single oral dose 100 mg/kg, after 24 h
Procedure: (§5) Apoptosis was assessed using levels of PARP-1, one of several known cellular substrates of caspases; cleavage of PARP-1 by caspases is considered a hallmark of apoptosis.[44]
(§6) The efficacy of a compound in reducing the MYC protein level and in inducing cell apoptosis was assessed using an NCI-H446 xenograft tumorigenicity mouse model. Six-week-old male athymic nu/nu nude mice (BioLASCO, Taiwan) were inoculated subcutaneously with 1 × 10^6 NCI-H446 cells resuspended in saline mixed with 50% Matrigel matrix (Corning, USA). […] Tumors were harvested after 2, 4, 8, and 24 h of drug treatment, respectively. Half of the tumor was cryopreserved and then subjected to western analysis; the other half was fixed in 10% formalin and then embedded in paraffin. For immunohistochemistry, tissue paraffin sections were deparaffinized using xylene and ethanol. After rehydration, antigen retrieval was achieved by placing the slides in 100 °C citrate buffer, pH 6.0 for 1 h. Endogenous peroxides were quenched by 0.5% H2O2 for 10 min. Slides were blocked with 3% BSA for 30 min and then incubated with a rabbit anticleaved Caspase-3 antibody (Cell signaling, 9661S) at room temperature for 1.5 h. After three washes with 1× PBS, a goat antirabbit HRP-polymer (Biocare Medical, USA) was added, followed by development of the color using 3,3′-diaminobenzidine substrate chromogen (Biocare Medical, USA). […]

[6] = system: cleaved Caspase-3 (CASP3) in NCI-H446 xenograft tumors; test: In vivo target validation: cleaved Caspase-3 immunohistochemistry; design: species or system mice; settings: single oral dose 100 mg/kg
Procedure: as §5, §6

[7] = system: pH3(Ser10) in NCI-H446 xenograft tumors; test: In vivo target validation: phosphorylation of histone H3 at Ser10 in tumors (western blot); design: species or system mice; settings: single oral dose 100 mg/kg, 2 h after drug administration
Procedure: (§7) Tumors were harvested after 2, 4, 8, and 24 h of the treatment, respectively (Figure 4A). Whole tumor tissues were collected for western blotting and immunohistochemistry (IHC) analyses. […] The western blot result of phosphorylated Aurora A/B/C was not provided due to the inability of detecting the signal in the tumor tissues.
as §6, with “h.” for “h. After three washes with 1× PBS, a goat antirabbit HRP-polymer (Biocare Medical, USA) was added, followed by development of the color using 3,3′-diaminobenzidine substrate chromogen (Biocare Medical, USA).”

[8] = system: cMYC in NCI-H446 xenograft tumors; test: In vivo target validation: cMYC protein level in tumors (western blot); design: species or system mice; settings: single oral dose 100 mg/kg
Procedure: as §7
The efficacy of a compound in reducing the MYC protein level and in inducing cell apoptosis was assessed using an NCI-H446 xenograft tumorigenicity mouse model. Six-week-old male athymic nu/nu nude mice (BioLASCO, Taiwan) were inoculated subcutaneously with 1 × 10^6 NCI-H446 cells resuspended in saline mixed with 50% Matrigel matrix (Corning, USA). […] Tumors were harvested after 2, 4, 8, and 24 h of drug treatment, respectively. Half of the tumor was cryopreserved and then subjected to western analysis; the other half was fixed in 10% formalin and then embedded in paraffin. For immunohistochemistry, tissue paraffin sections were deparaffinized using xylene and ethanol. After rehydration, antigen retrieval was achieved by placing the slides in 100 °C citrate buffer, pH 6.0 for 1 h. Endogenous peroxides were quenched by 0.5% H2O2 for 10 min. Slides were blocked with 3% BSA for 30 min and then incubated with a rabbit anticleaved Caspase-3 antibody (Cell signaling, 9661S) at room temperature for 1.5 h. After three washes with 1× PBS, a goat antirabbit HRP-polymer (Biocare Medical, USA) was added, followed by development of the color using 3,3′-diaminobenzidine substrate chromogen (Biocare Medical, USA). The nucleus was stained with hematoxylin.

[9] = PO, 5-on-2-off, after end of dosing

## CCN1CCN(c2cc(Nc3cc(C)[nH]n3)nc(N[C@H]3CCN(C(=O)c4ccc(Cl)cc4F)C3)n2)CC1 [Compound 13, (S)-(4-Chloro-2-fluorophenyl) (3-((4-(4-ethylpiperazin-1-yl)-6-((5-methyl-1H-pyrazol-3-yl)amino)pyrimidin-2-yl)amino)pyrrolidin-1-yl)methanone]
[1]; IV 50 mg/kg, 5-on-2-off dosing schedule, two weeks, nude mice
  tumor growth inhibition: > 90%
NCI-H82
  IC50: 51.7 nM
NCI-H446
  IC50: 120 nM
NCI-H2171
  IC50: 27.1 nM
NCI-H211
  IC50: 105 nM
NCI-H524
  IC50: 3.36 nM
NCI-H146; Homo sapiens, NCI-H146, 72 h
  IC50: 1180 nM
NCI-H146; 72 h
  IC50: > 1000 nM
[2]; IV 50 mg/kg, 5-on-2-off, during the treatment
  body weight change: less than 5%
cMYC in NCI-H82; 1.0 μM
  reduction of cMYC level: > 50%
cMYC in NCI-H82; 24 h
  NCI-H82 cMYC, relative protein level: 0.475 ± 0.023
cMYC in NCI-H82; various concentrations, 24 h
  effect on cMYC protein level in NCI-H82: dose-dependent loss
MYCN in SK-N-BE(2); 1.0 μM
  reduction of MYCN level: > 50%
MYCN in SK-N-BE(2); 24 h
  SK-N-BE(2) MYCN, relative protein level: 0.487 ± 0.066
MYCN in SK-N-BE(2); various concentrations, 24 h
  effect on MYCN protein level in SK-N-BE(2): dose-dependent loss
[3]
  IC50: 38.6 ± 7 nM
[4]
  IC50: < 200 nM

## CCC(=O)n1nc(C)cc1Nc1cc(N2CCN(CC)CC2)nc(N[C@H]2CCN(C(=O)c3ccc(Cl)cc3F)C2)n1 [Compound 25, (S)-1-(5-((2-((1-(4-Chloro-2-fluorobenzoyl)pyrrolidin-3-yl)amino)-6-(4-ethylpiperazin-1-yl)pyrimidin-4-yl)amino)-3-methyl-1H-pyrazol-1-yl)propan-1-one]
[1]; PO 100 mg/kg, 5-on-2-off, 2 weeks
  shrinkage of tumors with volume >750 mm^3: great potency to shrink tumors
[1]; PO 100 mg/kg, 5-on-2-off, four consecutive weeks
  tumor volume regression: > 80%
[1]; [9]
  xenografted tumors remained stable after the last dosage: 44 days
[1]
  anticancer activity in NCI-H446 xenograft tumor model: dose-dependent anticancer activity
[5]
  cleaved PARP-1 (cPARP-1) levels in tumor tissues: significantly upregulated
[6]
  incidence of cleaved Caspase-3 (CASP3), IHC: greatly increased
[2]; PO 100 mg/kg, 4-week dosing period
  body weight change: less than 5%
[7]
  reduction of phosphorylation level of histone H3 at Ser10: > 90%
[8]; 24 h after dosing
  cMYC protein level relative to vehicle-treated tumors: around 37%
[8]; 24 h post-treatment, vehicle 1.0 ± 0.230
  relative cMYC protein level in tumors: 0.374 ± 0.204

## CCOC(=O)n1nc(C)cc1Nc1cc(N2CCN(CC)CC2)nc(N[C@H]2CCN(C(=O)c3ccc(Cl)cc3F)C2)n1 [Compound 22, Ethyl (S)-5-((2-((1-(4-chloro-2-fluorobenzoyl)pyrrolidin-3-yl)amino)-6-(4-ethylpiperazin-1-yl)pyrimidin-4-yl)amino)-3-methyl-1H-pyrazole-1-carboxylate]
[1]
  anticancer activity in NCI-H446 xenograft tumor model: dose-dependent anticancer activity

## COc1cc(Nc2ncc3c(n2)-c2ccc(Cl)cc2C(c2c(F)cccc2OC)=NC3)ccc1C(=O)O [MLN8237, reference compound]
[1]; [9]
  tumors started to grow, day after the last dosage: 22 days
[5]
  cleaved PARP-1 (cPARP-1) levels in tumor tissues: significantly upregulated
[7]
  reduction of phosphorylation level of histone H3 at Ser10: > 90%
[8]; 2–24 h
  effect on the cMYC level in tumors: marginal effect

## CCN1CCN(c2cc(Nc3cc(C)[nH]n3)nc(N[C@H]3CCN(C(=O)c4ccc(Cl)c(C)c4)C3)n2)CC1 [Compound 11, (S)-(4-Chloro-3-methylphenyl) (3-((4-(4-ethylpiperazin-1-yl)-6-((5-methyl-1H-pyrazol-3-yl)amino)pyrimidin-2-yl)amino)pyrrolidin-1-yl)methanone]
cMYC in NCI-H82; 24 h
  NCI-H82 cMYC, relative protein level: 1.050 ± 0.060
MYCN in SK-N-BE(2); 24 h
  SK-N-BE(2) MYCN, relative protein level: 1.030 ± 0.256
[3]
  IC50: 58.1 ± 7.4 nM
